# Activity calls are given as the source filed them. The calls are words filed in the database; no cut-off is given here.
# How the values were obtained:
# [1] = target: T1, 5-hydroxytryptamine receptor 1A (Homo sapiens, UniProt P08908); experiment: Agonistic activity at human 5-HT1A receptor measured after 60 mins by Ultra Lance cAMP assay; assay type: functional
# T1 sequence (P08908 whole entry): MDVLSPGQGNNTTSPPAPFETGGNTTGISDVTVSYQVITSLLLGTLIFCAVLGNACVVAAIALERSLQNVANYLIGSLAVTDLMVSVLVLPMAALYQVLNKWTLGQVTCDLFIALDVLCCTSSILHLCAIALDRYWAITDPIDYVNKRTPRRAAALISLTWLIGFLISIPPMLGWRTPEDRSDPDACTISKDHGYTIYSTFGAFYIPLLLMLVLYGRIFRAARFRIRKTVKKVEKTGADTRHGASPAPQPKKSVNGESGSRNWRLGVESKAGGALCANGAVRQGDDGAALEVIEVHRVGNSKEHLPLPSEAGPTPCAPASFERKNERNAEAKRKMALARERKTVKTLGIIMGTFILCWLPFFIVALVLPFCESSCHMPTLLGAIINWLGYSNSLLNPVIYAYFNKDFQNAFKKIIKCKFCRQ
# D(2) dopamine receptor = D(2) dopamine receptor (Homo sapiens, UniProt P14416); experiment: Antagonistic activity at human dopamine D2 receptor measured after 60 mins by Lance Ultra cAMP assay; assay type: functional
# Sequence of D(2) dopamine receptor (P14416 whole entry): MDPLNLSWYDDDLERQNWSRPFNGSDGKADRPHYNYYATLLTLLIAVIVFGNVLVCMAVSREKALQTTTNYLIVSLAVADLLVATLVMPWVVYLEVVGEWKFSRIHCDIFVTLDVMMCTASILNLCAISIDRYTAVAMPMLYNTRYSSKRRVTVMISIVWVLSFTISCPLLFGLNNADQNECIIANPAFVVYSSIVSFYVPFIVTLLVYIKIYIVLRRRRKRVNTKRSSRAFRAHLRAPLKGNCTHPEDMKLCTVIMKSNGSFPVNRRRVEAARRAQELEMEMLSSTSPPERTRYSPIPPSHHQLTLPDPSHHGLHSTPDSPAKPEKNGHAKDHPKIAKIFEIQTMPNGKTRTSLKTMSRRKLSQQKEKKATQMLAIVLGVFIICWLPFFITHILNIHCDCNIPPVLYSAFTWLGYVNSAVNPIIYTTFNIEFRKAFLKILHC
# [2] = target: 5-hydroxytryptamine receptor 2A (Homo sapiens, UniProt P28223); experiment: Antagonistic activity at human 5-HT2A receptor assessed as calcium flux after 10 mins by FLIPR assay; assay type: functional
# Sequence of 5-hydroxytryptamine receptor 2A (P28223 whole entry): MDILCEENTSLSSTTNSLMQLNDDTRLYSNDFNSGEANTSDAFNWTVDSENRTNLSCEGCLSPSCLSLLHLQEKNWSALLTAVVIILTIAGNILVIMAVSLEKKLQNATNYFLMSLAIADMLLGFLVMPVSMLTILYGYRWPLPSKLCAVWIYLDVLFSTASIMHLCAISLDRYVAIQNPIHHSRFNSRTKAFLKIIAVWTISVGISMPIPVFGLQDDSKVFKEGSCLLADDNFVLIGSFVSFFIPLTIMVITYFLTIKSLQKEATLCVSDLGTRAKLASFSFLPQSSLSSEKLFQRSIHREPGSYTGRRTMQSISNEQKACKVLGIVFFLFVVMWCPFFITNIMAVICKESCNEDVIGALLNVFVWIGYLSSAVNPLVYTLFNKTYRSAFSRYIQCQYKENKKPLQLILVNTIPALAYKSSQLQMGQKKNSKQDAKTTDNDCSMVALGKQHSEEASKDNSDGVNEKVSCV
# Mus musculus [3] = experiment: Antipsychotic-like activity in ICR mouse assessed as inhibition of PCP-induced hyperlocomotion at 0.3 to 3 mg/kg, ig followed by animal habituation for 10 mins before 60 mins measurement period; assay type: functional, organism-based
# [4] = Stability in human liver microsomes assessed as parent compound remaining level at 2 uM in presence of NADPH incubated for 30 mins by LC-MS/MS method; assay type: ADME, microsome; details: read-out: Stability
# Histamine H1 receptor = Histamine H1 receptor (Homo sapiens, UniProt P35367); experiment: Antagonistic activity at histamine 1 receptor (unknown origin) after 10 mins by FLIPR assay; assay type: functional
# Sequence of Histamine H1 receptor (P35367 whole entry): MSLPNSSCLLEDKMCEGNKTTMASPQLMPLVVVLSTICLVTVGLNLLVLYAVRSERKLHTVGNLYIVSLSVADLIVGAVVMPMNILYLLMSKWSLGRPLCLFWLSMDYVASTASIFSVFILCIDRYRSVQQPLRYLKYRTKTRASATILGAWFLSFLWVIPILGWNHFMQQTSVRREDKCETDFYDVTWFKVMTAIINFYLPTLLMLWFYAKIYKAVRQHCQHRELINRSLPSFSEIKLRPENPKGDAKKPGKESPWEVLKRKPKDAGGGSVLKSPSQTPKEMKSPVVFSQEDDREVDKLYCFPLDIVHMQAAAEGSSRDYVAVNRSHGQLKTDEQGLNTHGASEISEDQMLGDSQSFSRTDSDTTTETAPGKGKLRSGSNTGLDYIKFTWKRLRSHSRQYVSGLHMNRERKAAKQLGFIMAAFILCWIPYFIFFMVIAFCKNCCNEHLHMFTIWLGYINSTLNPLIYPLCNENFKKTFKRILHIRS
# [5] = target: T2, Alpha-1A adrenergic receptor (Homo sapiens, UniProt P35348); experiment: Antagonistic activity at alpha-1A adrenergic receptor (unknown origin) after 10 mins by FLIPR assay; assay type: functional
# T2 sequence (P35348 whole entry): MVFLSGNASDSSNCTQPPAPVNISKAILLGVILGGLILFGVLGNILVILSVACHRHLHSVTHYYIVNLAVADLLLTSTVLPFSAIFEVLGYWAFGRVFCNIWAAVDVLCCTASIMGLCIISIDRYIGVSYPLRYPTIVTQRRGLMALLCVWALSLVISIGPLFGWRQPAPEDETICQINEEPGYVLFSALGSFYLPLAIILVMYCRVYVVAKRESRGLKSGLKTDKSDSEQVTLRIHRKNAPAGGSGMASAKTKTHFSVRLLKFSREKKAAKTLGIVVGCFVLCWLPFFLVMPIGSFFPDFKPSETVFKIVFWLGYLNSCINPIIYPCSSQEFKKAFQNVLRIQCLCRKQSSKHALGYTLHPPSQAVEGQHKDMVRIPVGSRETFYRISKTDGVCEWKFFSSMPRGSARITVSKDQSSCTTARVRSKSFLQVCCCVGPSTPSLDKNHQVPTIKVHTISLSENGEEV
# Mus musculus [6] = experiment: Antipsychotic-like activity in ICR mouse assessed as inhibition of PCP-induced hyperlocomotion at 3 mg/kg, ig followed by animal habituation for 10 mins before 60 mins measurement period; assay type: functional, organism-based
# [7] = target: T3, 5-hydroxytryptamine receptor 2C (Homo sapiens, UniProt P28335); experiment: Antagonistic activity at 5-HT2c receptor (unknown origin) after 10 mins by FLIPR assay; assay type: functional
# T3 sequence (P28335 whole entry): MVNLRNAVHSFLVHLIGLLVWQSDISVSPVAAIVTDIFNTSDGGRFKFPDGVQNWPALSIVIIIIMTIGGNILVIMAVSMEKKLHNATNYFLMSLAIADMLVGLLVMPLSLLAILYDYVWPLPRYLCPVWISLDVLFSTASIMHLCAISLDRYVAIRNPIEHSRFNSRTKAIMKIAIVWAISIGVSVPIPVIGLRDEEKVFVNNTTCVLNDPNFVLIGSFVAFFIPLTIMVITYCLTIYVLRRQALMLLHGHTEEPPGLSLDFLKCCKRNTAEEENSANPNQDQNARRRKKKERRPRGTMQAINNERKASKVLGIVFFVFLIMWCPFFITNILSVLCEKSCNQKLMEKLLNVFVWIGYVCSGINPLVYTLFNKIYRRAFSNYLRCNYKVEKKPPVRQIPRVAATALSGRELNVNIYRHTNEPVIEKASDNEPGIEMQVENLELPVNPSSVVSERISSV
SMILES,EC50 [1],IC50 (D(2) dopamine receptor),IC50 [2],"remaining at 0.5 h, 2 µM [4]",IC50 (Histamine H1 receptor),IC50 [5],IC50 [7],Activity (Mus musculus [3]),Activity (Mus musculus [6])
CCNC(=O)c1ccnc(OCCCCN2CCC(c3noc4cc(F)ccc34)CC2)c1,> 100000 nM,65.5 nM,67.5 nM,,,,,,
O=C(NC1CC1)c1cc(OCCCCN2CCC(c3noc4cc(F)ccc34)CC2)ccn1,28.1 nM,53.5 nM,167 nM,,,,,,
CNC(=O)c1cccc(OCCCCN2CCN(c3cccc(Cl)c3Cl)CC2)n1,23.6 nM,51.1 nM,910 nM,,,,,,
CNC(=O)c1cncc(OCCCCN2CCC(c3noc4cc(F)ccc34)CC2)c1,> 100000 nM,123 nM,83.2 nM,,,,,,
O=C(NC1CC1)c1cncc(OCCCCN2CCC(c3noc4cc(F)ccc34)CC2)c1,> 100000 nM,42.5 nM,89.9 nM,,,,,,
O=C1CCc2ccc(OCCCCN3CCN(c4cccc(Cl)c4Cl)CC3)cc2N1,,,,,,,,,Active
CNC(=O)c1cccc(OCCCCN2CCN(c3nsc4ccccc34)CC2)c1,,,,25%,,,,,
CNC(=O)c1cccc(OCCCCN2CCC(c3noc4cc(F)ccc34)CC2)n1,> 100000 nM,9.3 nM,134 nM,,,,,,
CNC(=O)c1cccc(OCCCCN2CCN(c3ccc4ccsc4c3)CC2)n1,117 nM,412 nM,1280 nM,,,,,,
O=C(NC1CC1)c1ccnc(OCCCCN2CCC(c3noc4cc(F)ccc34)CC2)c1,> 100000 nM,51.7 nM,53.9 nM,,,,,,
CNC(=O)c1cccc(OCCCCN2CCC(c3noc4cc(F)ccc34)CC2)c1,,,,97%,,,,,
CCNC(=O)c1cncc(OCCCCN2CCC(c3noc4cc(F)ccc34)CC2)c1,> 100000 nM,59 nM,94.2 nM,,,,,,
CNC(=O)c1ccnc(OCCCCN2CCC(c3noc4cc(F)ccc34)CC2)c1,> 100000 nM,299 nM,62.4 nM,,,,,,

# Further compounds by falling EC50 [1], results first:
EC50 [1],IC50 (D(2) dopamine receptor),IC50 [2],"remaining at 0.5 h, 2 µM [4]",IC50 (Histamine H1 receptor),IC50 [5],IC50 [7],SMILES,Activity (Mus musculus [3]),Activity (Mus musculus [6])
17.6 nM,37.6 nM,95.5 nM,,,,,CCNC(=O)c1cc(OCCCCN2CCC(c3noc4cc(F)ccc34)CC2)ccn1,,
16.5 nM,42.6 nM,523 nM,,,,,NC(=O)c1cc(OCCCCN2CCN(c3nsc4ccccc34)CC2)ccn1,,
11.3 nM,86.1 nM,106 nM,,,,,CNC(=O)c1cccc(OCCCCN2CCN(c3cccc4sccc34)CC2)n1,,
9 nM,59.8 nM,247 nM,98%,4420 nM,11 nM,63 nM,CNC(=O)c1cc(OCCCCN2CCC(c3noc4cc(F)ccc34)CC2)ccn1,,
6.2 nM,65.2 nM,324 nM,,,,,O=C(NC1CC1)c1cc(OCCCCN2CCN(c3nsc4ccccc34)CC2)ccn1,,
2.2 nM,11.4 nM,113 nM,65%,923 nM,71 nM,70 nM,CNC(=O)c1cc(OCCCCN2CCN(c3nsc4ccccc34)CC2)ccn1,,
1.2 nM,24 nM,154 nM,65%,418 nM,164 nM,346 nM,CNC(=O)c1cc(OCCCCN2CCN(c3cccc4sccc34)CC2)ccn1,Dose-dependent effect,Active
0.9 nM,26.5 nM,476 nM,,,,,CNC(=O)c1cc(OCCCCN2CCN(c3cccc(Cl)c3Cl)CC2)ccn1,,
0.7 nM,8 nM,64.9 nM,,,,,CNC(=O)c1cc(OCCCCN2CCN(c3cccc4sc(F)cc34)CC2)ccn1,,
